How the values were obtained:
Format in all cases: cell-based
[1] = tested on: primary human tumors (esophageal, gastric); assay: TCA: Compound B-1 with paclitaxel, primary tumors
Procedure: (§1) In both studies, cell viability was assessed after 6 days in culture. Statistical analysis of the combination matrix was performed to assess whether synergy, additivity, or antagonism of the combination treatments were observed.
(§2) Materials: Primary patient samples (See Tables 16 and 17, below) were excised from mice when they reached 500 mg to 1000 mg in size and processed immediately, or after overnight shipment. Tumors were serially passaged by subcutaneous implantation of 50 mg to 150 mg fragments into the flanks of immunocompromised (nude) mice. Tumors were used within the first 5 or 7 passages.
(§3) Tumor Chemosensitivity Assay (TCA): Primary tumor samples were grown and serially passaged in immunocompromised mice. Tumors were mechanically dissociated into small fragments (1 mm to 2 mm) with scalpels in phosphate buffered saline (PBS or RPMI) and centrifuged at 200×g for 5 minutes at room temperature in 50 mL centrifuge tubes. Samples were resuspended in 10 mL of cell dissociation reagent and enzymatically digested with mechanical agitation for 1 to 3 hours at 37° C., 5% CO2 to a single cell suspension. Ten mL of complete RPMI-1640 media was added to the cell mixture and pipetted up and down 4 to 5 times. The mixture was then passed through a 70 μm or 100 μm mesh strainer to remove undigested tumor. The filtrate was then centrifuged 200×g for 5 minutes at room temperature and resuspended in 20 mL complete RPMI-1640. This cell suspension was slowly layered onto 20 mL of room temperature Histopaque and centrifuged at 400×g for 15 minutes at room temperature without a brake. The interface was transferred to a new 50 mL centrifuge tube and 15 mL of complete RPMI-1640 was added. This suspension was centrifuged at 200×g at room temperature, and the resulting pellet was resuspended in 10 mL of complete PC-1 media, except for pancreatic tumors in which case Pancreatic Medium was used. Cells were diluted in Trypan blue, and viable cells that excluded the dye were counted. Only the larger, tumor cells were included in the cell count. Cells were diluted in complete PC-1 or Pancreatic media, as appropriate for the cells, and were plated at 15,000 to 20,000 cells per well in 100-135 μL in ultra-low attachment U-bottom plates.
Compound Addition: For these studies, a 10 mM stock of the DNA-PK inhibitor (Compound B-1 or Compound B-2) was made in DMSO and used to add to cells from most tumors with HP D300 Digital Dispenser (Tecan US, Morrisville, NC, USA), or diluted into the appropriate media (PC-1 or pancreatic media) as a 5-10× stock and added to cells (OVX001 and ENX001, 005). PC-1, pancreatic media, and chemotherapeutics were also added so that final well volume was 150 μL. Doxorubicin was made as DMSO stock of 1 or 10 mM and added to cells for most tumors with HP D300 Digital Dispenser, or diluted into PC-1 as 5-10× stock and added to cells (OVX001 and ENX001, 005). Cisplatin (cis-diammine platinum(II), dichloride) was prepared fresh to 10 mM in warm (60° C.) distilled water and diluted in PC-1 as a 5-10× stock. […] Different starting concentrations, dose ranges, and number of doses were used for each experiment based on the response data available at the time.
For bleomycin experiments, combinations with Compound B-1 at all concentrations were run in triplicate. A 6×3 matrix was designed on one plate, consisting of a 2-point concentration range of 0.73 μM and 2.2 μM Compound B-1 plus no treatment control, in 3 columns each of 6 wells. Bleomycin (plus ‘no treatment’ control) was added to 9 wells in rows of this plate. Similar 6×3 matrices were set up for additional agents with different starting concentrations for compound dilutions. For cisplatin experiments the starting concentration was 30 μM which was diluted 1:3. […] For doxorubicin hydrochloride experiments the starting concentration was 5 μM doxorubicin which was diluted 1:3. For gemcitabine experiments the starting concentration was 5 μM gemcitabine which was diluted 1:3. […]

[2] = tested on: primary human tumors (NSCLC, SCLC, pancreatic, HCC, gastric, esophageal); assay: TCA assays overall: all combination treatments with Compound B-1
Procedure: as §1, §2
as §3, with “Cells were diluted in complete PC-1 or Pancreatic media, as appropriate for the cells, and were plated at 15,000 to 20,000 cells per well in 100-135 μL in ultra-low attachment U-bottom plates.” left out

[3] = tested on: primary human endometrial tumors (dissociated cells); assay: Tumor Chemosensitivity Assay (TCA): Compound B-2 with doxorubicin, primary endometrial tumors, viability after 6 days, Bliss
Procedure: Specifically, one study described the combination of Compound B-2 and doxorubicin hydrochloride. In this study, a panel of primary human ovarian and endometrial tumors was dissociated and treated with Compound B-2 to determine the effectiveness of this selective DNA-PK inhibitor to enhance the activity of doxorubicin.
as §1, §2
Tumor Chemosensitivity Assay (TCA): Primary tumor samples were grown and serially passaged in immunocompromised mice. Tumors were mechanically dissociated into small fragments (1 mm to 2 mm) with scalpels in phosphate buffered saline (PBS or RPMI) and centrifuged at 200×g for 5 minutes at room temperature in 50 mL centrifuge tubes. […] Cells were diluted in Trypan blue, and viable cells that excluded the dye were counted. […]

Structure (SMILES) | tumors that showed additivity ([1]; four of 5 tumors) | tumors that showed antagonism ([1]; one of 5 tumors) | Average Bliss score ([1]; tumor ESX005, Esophageal) | Synergy/Additivity/Antagonism ([1]; tumor ESX005, Esophageal) | Average Bliss score ([1]; tumor ESX008, Esophageal) | Synergy/Additivity/Antagonism ([1]; tumor ESX008, Esophageal) | Average Bliss score ([1]; tumor GAX001, Gastric) | Synergy/Additivity/Antagonism ([1]; tumor GAX001, Gastric) | Average Bliss score ([1]; tumor GAX007, Gastric) | Synergy/Additivity/Antagonism ([1]; tumor GAX007, Gastric) | Average Bliss score ([1]; tumor GAX027, Gastric) | Synergy/Additivity/Antagonism ([1]; tumor GAX027, Gastric) | tumors that showed antagonism ([2]; all TCA combinations with Compound B-1 (4/63)) | combination treatments that showed additive effects ([2]; all TCA combinations with Compound B-1 (29/63)) | combination treatments that demonstrated synergy or strong synergy ([2]; all TCA combinations with Compound B-1 (29/68 as printed)) | Average Bliss score ([3]; tumor ENX001 (Endometrial)) | Average Bliss score ([3]; tumor ENX005 (Endometrial))
CNC(=O)c1ccnc2c([C@H](C)CNc3cc(-c4cnc(C)nc4)ncn3)cccc12 [Compound B-1] | 80% | 20% | −3 | Additive (Values between 5 and −5 are considered additive) | −5 | Antagonistic (less than −5 are considered antagonistic) | −1 | Additive (Values between 5 and −5 are considered additive) | −4 | Additive (Values between 5 and −5 are considered additive) | 1 | Additive (Values between 5 and −5 are considered additive) | 6% | 46% | 46% |  | 
[2H]c1nc(C)nc([2H])c1-c1cc(NC[C@@H](C)c2cccc3c(C(=O)NC)ccnc23)ncn1 [Compound B-2] |  |  |  |  |  |  |  |  |  |  |  |  |  |  |  | 6 | 21

From patent US11980633B2, “Method for treating cancer using a combination of DNA-damaging agents and DNA-PK inhibitors” (Vertex Pharmaceuticals Incorporated, priority 2016, dated 2024)
